In patent US7932271B2, “Heterocyclic methyl sulfone derivative” (Daiichi Pharmaceutical Co., Ltd., priority 2003, dated 2011):

Key:
[1] = tested on: β amyloid protein (Aβ) secreted by E35 cells (human glioma H4 cells transfected with APP751 gene); experiment: Inhibition of production or secretion of β-amyloid protein (Aβ) in E35 cells, sandwich ELISA of the supernatant; assay type: cell-based; details: 24 hours with test compound, compared to DMSO control cells, read-out: Activity (IC50, concentration at which 50% inhibition of Aβ production was observed)
Method: The inhibitory activity against formation of β amyloid protein of the compounds obtained in Examples was tested in the method described bellow.
E35 cells were established by transfecting APP751 gene which is a wild type human β-amyloid protein precursor into human glioma cells (H4 cells).
E35 cells were seeded in 96-well plates and cultured in an incubator of 37° C. by using a Dulbecco's Modified Eagle's Medium containing 10% inactivated fetal bovine serum (10% FBS-DMEM). Twenty-four hours after seeding, a test compound dissolved in DMSO so as to give its concentration to be 2000 times as much as that of the final concentration was added to the medium in an amount of 1/2000 capacity of the culture medium. The cells were cultured for additional twenty-four hours, and then the supernatant was collected. The amount of β amyloid protein (Aβ) secreted in the supernatant was measured by the sandwich enzyme-linked immunosorbent assay (ELISA). Described specifically, a monoclonal antibody 25-1, which recognized Aβ25-35, was immobilized onto a 96-well ELISA plate, followed by the incubation at 4° C. for 16 to 20 hours. After washing with a phosphate buffer (pH 7.4) (PBS), a biotinylated monoclonal antibody MA32-40, which recognized Aβ1-8, was added, and the plate was kept at 4° C. for 2 hours. After the supernatant was removed and the well was washed sufficiently with PBS, alkaline phosphatase-conjugated streptavidin was added to the plate. Absorbance was measured while adding BlouPhos (manufactured by KPL) as a substrate. An amount of Aβ contained in the supernatant was calculated using a calibration curve separately created using Aβ of a known concentration. IC50 of the test compound was presented as the concentration at which 50% inhibition of Aβ production was observed compared to the amount of Aβ of the control cells to which only DMSO was added.
When there is at least 10-times difference between the IC50 and the concentration at which cytotoxicity appears, then the compound is judged as a compound having an inhibitory activity against production or secretion of β amyloid protein.

SMILES	melting point	IC50 [1]
N#Cc1ccc(S(=O)(=O)C(c2cc(F)ccc2F)c2cc(N)ncc2Cl)cc1 (stereo not drawn) [Example 246, 4-[(2-Amino-5-chloropyridin-4-yl)(2,5-difluorophenyl)methylsulfonyl]benzonitrile]	233 to 235 °C	5 to 50 nM
O=S(=O)(c1ccc(Cl)cc1)C(c1cc(F)ccc1F)c1cc(N2CCC(O)CC2)ncc1Cl (stereo not drawn) [Example 116, 5-Chloro-4-[(4-chlorophenylsulfonyl)-(2,5-difluorophenyl)methyl]-2-(4′-hydroxypiperidin-1′-yl)pyridine]	146 to 148 °C	5 to 50 nM
CS(=O)(=O)Nc1cc(C(c2cc(F)ccc2F)S(=O)(=O)c2ccc(Cl)cn2)c(Cl)cn1 (stereo not drawn) [Example 242, N-[5-Chloro-4-[(5-chloropyridin-2-ylsulfonyl)(2,5-difluorophenyl)methyl]pyridin-2-yl]methanesulfonamide]	214 to 216 °C	50 to 500 nM
O=S(=O)(CCN1CCCCC1)Nc1cc(C(c2cc(F)ccc2F)S(=O)(=O)c2ccc(Cl)cc2)c(Cl)cn1 (stereo not drawn) [Example 278, N-[5-Chloro-4-[(4-chlorophenylsulfonyl)(2,5-difluorophenyl)methyl]pyridin-2-yl]-2-piperidin-1-ylethanesulfonamide]	200 to 203 °C	< 5 nM
O=C(O)CCc1cc(C(c2cc(F)ccc2F)S(=O)(=O)c2ccc(Cl)cc2)c(Cl)cn1 (stereo not drawn) [Example 261, 3-[5-Chloro-4-[(4-chlorophenylsulfonyl)(2,5-difluorophenyl)methyl]pyridin-2-yl]propionic acid]	194 to 196 °C	5 to 50 nM
CS(=O)(=O)Nc1cc(C(c2cc(C#N)ccc2F)S(=O)(=O)c2ccc(Cl)cc2)c(Cl)cn1 (stereo not drawn) [Example 236, N-[5-Chloro-4-[(4-chlorophenylsulfonyl)(5-cyano-2-fluorophenyl)methyl]pyridin-2-yl]methanesulfonamide]	118 to 120 °C	< 5 nM
Nc1cc(C(c2cc(F)ccc2F)S(=O)(=O)c2ccc(C(F)(F)F)nc2)c(Cl)cn1 (stereo not drawn) [Example 250, [5-Chloro-4-[(2,5-difluorophenyl)(6-trifluoromethylpyridin-3-ylsulfonyl)methyl]pyridin-2-yl]amine]	201 to 202 °C	5 to 50 nM
COc1ccc(S(=O)(=O)C(c2cc(F)ccc2F)c2cc(N)ncc2Cl)cc1 (stereo not drawn) [Example 240, [5-Chloro-4-[(2,5-difluorophenyl)(4-methoxyphenylsulfonyl)methyl]pyridin-2-yl]amine]	153 to 155 °C	5 to 50 nM
O=S(=O)(c1ccc(Cl)cc1)C(c1cc(F)ccc1F)c1cc(NS(=O)(=O)C(F)(F)F)ncc1Cl (stereo not drawn) [Example 276, N-[5-Chloro-4-[(4-chlorophenylsulfonyl)(2,5-difluorophenyl)methyl]pyridin-2-yl]trifluoromethanesulfonamide]	221 to 223 °C	5 to 50 nM
O=C(O)CCc1cc(C(c2cc(F)ccc2F)S(=O)(=O)c2ccc(Cl)cc2)c(F)cn1 (stereo not drawn) [Example 254, 3-[4-[(4-Chlorophenylsulfonyl)(2,5-difluorophenyl)methyl]-5-fluoropyridin-2-yl]propionic acid]	89 to 91 °C	50 to 500 nM
O=S(=O)(c1ccc(Cl)cc1)C(c1cc(F)ccc1F)c1cc(NCCO)ncc1Cl (stereo not drawn) [Example 168, 2-[[5-Chloro-4-[(4-chlorophenylsulfonyl)-(2,5-difluorophenyl)methyl]pyridin-2-yl]amino]ethanol]	168 to 169 °C	< 5 nM
CS(=O)(=O)N(N)c1cc(C(c2cc(F)ccc2F)S(=O)(=O)c2ccc(Cl)cc2)c(Cl)cn1 (stereo not drawn) [Example 225, 1-[5-Chloro-4-[(4-chlorophenylsulfonyl)(2,5-difluorophenyl)methyl]pyridin-2-yl]-1-methylsulfonylhydrazine]	152 to 154 °C	5 to 50 nM
Nc1cc(C(c2cc(F)ccc2F)S(=O)(=O)c2ccc(Cl)c(F)c2)c(Cl)cn1 (stereo not drawn) [Example 251, [5-Chloro-4-[(4-chloro-3-fluorophenylsulfonyl)(2,5-difluorophenyl)methyl]pyridin-2-yl]amine]	159 to 160 °C	< 5 nM
Cn1cnc(S(=O)(=O)Nc2cc(C(c3cc(F)ccc3F)S(=O)(=O)c3ccc(Cl)cc3)c(Cl)cn2)c1 (stereo not drawn) [Example 268, N-[5-Chloro-4-[(4-chlorophenylsulfonyl)(2,5-difluorophenyl)methyl]pyridin-2-yl]-1-methyl-1H-imidazole-4-sulfonamide]	294 to 296 °C	< 5 nM
Nc1cc(C(c2cc(F)ccc2F)S(=O)(=O)c2ccc(F)c(F)c2)c(Cl)cn1 (stereo not drawn) [Example 247, [5-Chloro-4-[(2,5-difluorophenyl)(3,4-difluorophenylsulfonyl)methyl]pyridin-2-yl]amine]	140 to 141 °C	< 5 nM
CS(=O)(=O)Nc1cc(C(c2cc(F)ccc2F)S(=O)(=O)c2ccc(F)c(F)c2)c(Cl)cn1 (stereo not drawn) [Example 249, N-[5-Chloro-4-[(2,5-difluorophenyl)(3,4-difluorophenylsulfonyl)methyl]pyridin-2-yl]methanesulfonamide]	118 to 120 °C	< 5 nM
O=S(=O)(c1ccc(Cl)cc1)C(c1cc(F)ccc1F)c1cc(N2CCCS2(=O)=O)ncc1Cl (stereo not drawn) [Example 274, 5-Chloro-4-[(4-chlorophenylsulfonyl)(2,5-difluorophenyl)methyl]-2-(1,1-dioxo-1λ^6-isothiazolidin-2-yl)pyridine]	219 to 221 °C	5 to 50 nM
Cc1cnc(N)cc1C(c1cc(F)ccc1F)S(=O)(=O)c1ccc(Cl)cc1 (stereo not drawn) [Example 211, [4-[(4-Chlorophenylsulfonyl)(2,5-difluorophenyl)methyl]-5-methylpyridin-2-yl]amine]	188 to 189 °C	< 5 nM
O=S(=O)(c1ccc(Cl)cc1)C(c1ccncc1)c1cc(F)ccc1F (stereo not drawn) [Example 20, 4-[[(4-Chlorophenyl)sulfonyl]-(2,5-difluorophenyl)methyl]pyridine]	126 to 127 °C	50 to 500 nM
Nc1cc(C(c2cc(F)ccc2F)S(=O)(=O)c2ccc(F)cc2)c(Cl)cn1 (stereo not drawn) [Example 215, [5-Chloro-4-[(2,5-difluorophenyl)-(4-fluorophenylsulfonyl)methyl]pyridin-2-yl]amine]	157 to 159 °C	< 5 nM
O=S(=O)(CCN1CCOCC1)Nc1cc(C(c2cc(F)ccc2F)S(=O)(=O)c2ccc(Cl)cc2)c(Cl)cn1 (stereo not drawn) [Example 280, N-[5-Chloro-4-[(4-chlorophenylsulfonyl)(2,5-difluorophenyl)methyl]pyridin-2-yl]-2-morpholin-4-ylethanesulfonamide]	219 to 221 °C	< 5 nM
